From ChEMBL document CHEMBL1201862, “PubChem BioAssay data set” (2004)
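A five-concentration, 48-hour dose response in 96-well plates underlies each endpoint, interpolated linearly between surrounding concentrations. GI50 marks 50% less growth.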 Activity calls are given as the source filed them. No stated cut-off is given here; in the data, active = GI50 up to about 1.1 µM and inactive = higher.

What was measured:
Test in all cases: NCI anticancer screen, dose series, 48 h
786-0 = test system: 786-0
A498 = test system: A498
A549 = test system: A549
ACHN = test system: ACHN
BT-549 = test system: BT-549
CAKI-1 = test system: CAKI-1
CCRF-CEM = test system: CCRF-CEM
COLO 205 = test system: COLO 205
DU-145 = test system: DU-145
EKVX = test system: EKVX
HCC 2998 = test system: HCC 2998
HCT-116 = test system: HCT-116
HCT-15 = test system: HCT-15
HOP-62 = test system: HOP-62
HOP-92 = test system: HOP-92
HT-29 = test system: HT-29
Hs-578T = test system: Hs-578T
IGROV-1 = test system: IGROV-1
K562 = test system: K562
KM12 = test system: KM12
LOX IMVI = test system: LOX IMVI
M14 = test system: M14
MCF7 = test system: MCF7
MDA-MB-231 = test system: MDA-MB-231
MDA-MB-435 = test system: MDA-MB-435
MDA-N = test system: MDA-N
MOLT-4 = test system: MOLT-4
Malme-3M = test system: Malme-3M
NCI-H226 = test system: NCI-H226
NCI-H23 = test system: NCI-H23
NCI-H460 = test system: NCI-H460
NCI-H522 = test system: NCI-H522
NCI/ADR-RES = test system: NCI/ADR-RES
OVCAR-3 = test system: OVCAR-3
OVCAR-4 = test system: OVCAR-4
OVCAR-5 = test system: OVCAR-5
OVCAR-8 = test system: OVCAR-8
PC-3 = test system: PC-3
RPMI-8226 = test system: RPMI-8226
RXF 393 = test system: RXF 393
SF-268 = test system: SF-268
SF-295 = test system: SF-295
SF-539 = test system: SF-539
SK-MEL-28 = test system: SK-MEL-28
SK-MEL-2 = test system: SK-MEL-2
SK-MEL-5 = test system: SK-MEL-5
SK-OV-3 = test system: SK-OV-3
SN12C = test system: SN12C
SNB-19 = test system: SNB-19
SNB-75 = test system: SNB-75
SR = test system: SR
SW-620 = test system: SW-620
T47D = test system: T47D
TK-10 = test system: TK-10
U-251 = test system: U-251
UACC-257 = test system: UACC-257
UACC-62 = test system: UACC-62
UO-31 = test system: UO-31
HL-60 = test system: HL-60

`C[C@]12CC[C@H]3[C@@H](CCC4=CC(=O)CC[C@@H]43)[C@@H]1CC[C@@H]2OC1(O)C(=O)c2ccccc2C1=O` was tested, and the GI50 (786-0) was 24.9 µM (inactive), the GI50 (A498) was 48.5 µM (inactive) and the GI50 (A549) was > 100 µM (inactive). For the same compound, the GI50 (ACHN) was 27.7 µM (inactive), the GI50 (BT-549) was 66.8 µM (inactive) and the GI50 (CAKI-1) was 80.2 µM (inactive). The GI50 (CCRF-CEM) was 31.4 µM (inactive), the GI50 (COLO 205) was 24.4 µM (inactive) and the GI50 (DU-145) was 16.5 µM (inactive). The GI50 (EKVX) was 0.352 µM (active), the GI50 (HCC 2998) was > 100 µM (inactive) and the GI50 (HCT-116) was 14.5 µM (inactive). The GI50 (HCT-15) was 37.8 µM, the GI50 (HOP-62) was 36.6 µM (inactive) and the GI50 (HOP-92) was > 100 µM (inactive). The GI50 (HT-29) was 35.1 µM (inactive), the GI50 (Hs-578T) was 11.2 µM (inactive) and the GI50 (IGROV-1) was 69.7 µM (inactive). The GI50 (K562) was 35.3 µM (inactive), the GI50 (KM12) was > 100 µM (inactive) and the GI50 (LOX IMVI) was 37.5 µM (inactive). For the same compound, the GI50 (M14) was 44.6 µM (inactive), the GI50 (MCF7) was 30.8 µM (inactive) and the GI50 (MDA-MB-231) was 87.3 µM (inactive). For the same compound, the GI50 (MDA-MB-435) was 32.7 µM (inactive), the GI50 (MDA-N) was 17.6 µM (inactive) and the GI50 (MOLT-4) was 33.3 µM (inactive). The GI50 (Malme-3M) was 34 µM (inactive), the GI50 (NCI-H226) was > 100 µM (inactive) and the GI50 (NCI-H23) was 27.1 µM (inactive). The GI50 (NCI-H460) was 67 µM (inactive), the GI50 (NCI-H522) was 17.3 µM (inactive) and the GI50 (NCI/ADR-RES) was 63 µM (inactive). For the same compound, the GI50 (OVCAR-3) was 39.4 µM (inactive), the GI50 (OVCAR-4) was 91.4 µM (inactive) and the GI50 (OVCAR-5) was 27.6 µM (inactive). The GI50 (OVCAR-8) was 45.2 µM (inactive), the GI50 (PC-3) was 60.5 µM (inactive) and the GI50 (RPMI-8226) was 26.2 µM (inactive). For the same compound, the GI50 (RXF 393) was 33.3 µM (inactive), the GI50 (SF-268) was 34.1 µM (inactive) and the GI50 (SF-295) was > 100 µM (inactive). For the same compound, the GI50 (SF-539) was 32.4 µM (inactive), the GI50 (SK-MEL-28) was > 100 µM (inactive) and the GI50 (SK-MEL-2) was 75.9 µM (inactive). The GI50 (SK-MEL-5) was 19.5 µM (inactive), the GI50 (SK-OV-3) was > 100 µM (inactive) and the GI50 (SN12C) was 17 µM (inactive). The GI50 (SNB-19) was > 100 µM (inactive), the GI50 (SNB-75) was 56.9 µM (inactive) and the GI50 (SR) was 35.6 µM (inactive). For the same compound, the GI50 (SW-620) was 40.6 µM (inactive), the GI50 (T47D) was 36.7 µM (inactive) and the GI50 (TK-10) was 32.5 µM (inactive). For the same compound, the GI50 (U-251) was 48.8 µM (inactive), the GI50 (UACC-257) was 28.5 µM (inactive) and the GI50 (UACC-62) was 11.7 µM (inactive). For the same compound, the GI50 (UO-31) was 26.2 µM (inactive).

In the case of `CN1CC(c2ccccc2)C(O)(C2(c3ccccc3)CN(C)CC(c3ccccc3)C2=O)C(c2ccccc2)C1` (centres undefined), the GI50 (786-0) is reported as > 100 µM (inactive), the GI50 (A498) is reported as 91.2 µM (inactive) and the GI50 (A549) is reported as > 100 µM (inactive). The GI50 (ACHN) was > 100 µM (inactive), the GI50 (BT-549) was > 100 µM (inactive) and the GI50 (CAKI-1) was > 100 µM (inactive). The GI50 (COLO 205) was 93.3 µM (inactive), the GI50 (DU-145) was > 100 µM (inactive) and the GI50 (EKVX) was > 100 µM (inactive). The GI50 (HCT-116) was 75.3 µM (inactive), the GI50 (HCT-15) was over 100 µM and the GI50 (HL-60) was 22.4 µM (inactive). The GI50 (HOP-62) was 77.1 µM (inactive), the GI50 (HOP-92) was 50.1 µM (inactive) and the GI50 (HT-29) was > 100 µM (inactive). The GI50 (Hs-578T) was 23.1 µM (inactive), the GI50 (IGROV-1) was > 100 µM (inactive) and the GI50 (K562) was > 100 µM (inactive). For the same compound, the GI50 (KM12) was > 100 µM (inactive), the GI50 (LOX IMVI) was > 100 µM (inactive) and the GI50 (M14) was > 100 µM (inactive). For the same compound, the GI50 (MCF7) was > 100 µM (inactive), the GI50 (MDA-MB-231) was > 100 µM (inactive) and the GI50 (MDA-MB-435) was > 100 µM (inactive). For the same compound, the GI50 (MDA-N) was > 100 µM (inactive), the GI50 (MOLT-4) was > 100 µM (inactive) and the GI50 (NCI-H226) was > 100 µM (inactive). For the same compound, the GI50 (NCI-H23) was > 100 µM (inactive), the GI50 (NCI-H460) was 45.8 µM (inactive) and the GI50 (NCI-H522) was > 100 µM (inactive). The GI50 (NCI/ADR-RES) was > 100 µM (inactive), the GI50 (OVCAR-3) was > 100 µM (inactive) and the GI50 (OVCAR-4) was > 100 µM (inactive). For the same compound, the GI50 (OVCAR-5) was > 100 µM (inactive), the GI50 (OVCAR-8) was > 100 µM (inactive) and the GI50 (PC-3) was > 100 µM (inactive). The GI50 (RPMI-8226) was > 100 µM (inactive), the GI50 (SF-268) was > 100 µM (inactive) and the GI50 (SF-295) was 55.2 µM (inactive). For the same compound, the GI50 (SF-539) was > 100 µM (inactive), the GI50 (SK-MEL-28) was > 100 µM (inactive) and the GI50 (SK-MEL-2) was > 100 µM (inactive). The GI50 (SK-MEL-5) was > 100 µM (inactive), the GI50 (SN12C) was > 100 µM (inactive) and the GI50 (SNB-19) was > 100 µM (inactive). The GI50 (SR) was > 100 µM (inactive), the GI50 (SW-620) was > 100 µM (inactive) and the GI50 (T47D) was > 100 µM (inactive). The GI50 (TK-10) was > 100 µM (inactive), the GI50 (U-251) was > 100 µM (inactive) and the GI50 (UACC-257) was > 100 µM (inactive). For the same compound, the GI50 (UACC-62) was > 100 µM (inactive) and the GI50 (UO-31) was > 100 µM (inactive).

`O=C1c2c(Br)sc(Br)c2[C@H]2OC(=S)N[C@@H]12` was tested, and the GI50 (786-0) was 11.3 µM (inactive), the GI50 (A498) was 18.3 µM (inactive) and the GI50 (A549) was 17.1 µM (inactive). The GI50 (ACHN) was 4.45 µM (inactive), the GI50 (BT-549) was 10 µM (inactive) and the GI50 (CAKI-1) was 3.25 µM (inactive). The GI50 (CCRF-CEM) was 0.624 µM (active), the GI50 (COLO 205) was 2.51 µM (inactive) and the GI50 (DU-145) was 12.8 µM (inactive). For the same compound, the GI50 (EKVX) was 4.89 µM (inactive), the GI50 (HCC 2998) was 10.6 µM (inactive) and the GI50 (HCT-116) was 2.81 µM (inactive). The GI50 (HCT-15) was 1.88 µM, the GI50 (HOP-62) was 13.5 µM (inactive) and the GI50 (HOP-92) was 11.9 µM (inactive). The GI50 (HT-29) was 2 µM (inactive), the GI50 (Hs-578T) was 11.8 µM (inactive) and the GI50 (IGROV-1) was 10.1 µM (inactive). For the same compound, the GI50 (K562) was 2.29 µM (inactive), the GI50 (KM12) was 14.4 µM (inactive) and the GI50 (LOX IMVI) was 3.02 µM (inactive). The GI50 (M14) was 1.95 µM (inactive), the GI50 (MCF7) was 9.38 µM (inactive) and the GI50 (MDA-MB-231) was 12.1 µM (inactive). The GI50 (MDA-MB-435) was 2.96 µM (inactive), the GI50 (MDA-N) was 5.04 µM (inactive) and the GI50 (MOLT-4) was 2.17 µM (inactive). The GI50 (Malme-3M) was 3.73 µM (inactive), the GI50 (NCI-H226) was 17.1 µM (inactive) and the GI50 (NCI-H23) was 5.15 µM (inactive). The GI50 (NCI-H460) was 16.6 µM (inactive), the GI50 (NCI-H522) was 1.69 µM (inactive) and the GI50 (NCI/ADR-RES) was 8.51 µM (inactive). The GI50 (OVCAR-3) was 2.6 µM (inactive), the GI50 (OVCAR-4) was 6.07 µM (inactive) and the GI50 (OVCAR-5) was 17.1 µM (inactive). For the same compound, the GI50 (OVCAR-8) was 3.5 µM (inactive), the GI50 (PC-3) was 4.07 µM (inactive) and the GI50 (RPMI-8226) was 4.68 µM (inactive). The GI50 (RXF 393) was 3.14 µM (inactive), the GI50 (SF-268) was 3.27 µM (inactive) and the GI50 (SF-295) was 15.2 µM (inactive). For the same compound, the GI50 (SF-539) was 16.6 µM (inactive), the GI50 (SK-MEL-28) was 2.79 µM (inactive) and the GI50 (SK-MEL-2) was 13.6 µM (inactive). For the same compound, the GI50 (SK-MEL-5) was 11 µM (inactive), the GI50 (SK-OV-3) was 15.7 µM (inactive) and the GI50 (SN12C) was 3.21 µM (inactive). The GI50 (SNB-19) was 15.2 µM (inactive), the GI50 (SNB-75) was 16.1 µM (inactive) and the GI50 (SR) was 1.67 µM (inactive). For the same compound, the GI50 (SW-620) was 2.43 µM (inactive), the GI50 (T47D) was 12.1 µM (inactive) and the GI50 (TK-10) was 20.2 µM (inactive). For the same compound, the GI50 (U-251) was 2.78 µM (inactive), the GI50 (UACC-257) was 7.08 µM (inactive) and the GI50 (UACC-62) was 11.8 µM (inactive). For the same compound, the GI50 (UO-31) was 1.75 µM (inactive).
